Results on 20 compounds are retold here after US7816371B2, “Bicycloheteroaryl compounds as P2X7 modulators and uses thereof” (Renovis, Inc., priority 2006, dated 2010).

Some results are limits rather than exact numbers.

The target in this test is T1, P2X7 receptor (Homo sapiens, UniProt Q99572).
T1 construct: host or cells: THP-1 cells differentiated with LPS and IFN-γ
T1 sequence (Q99572 1-595): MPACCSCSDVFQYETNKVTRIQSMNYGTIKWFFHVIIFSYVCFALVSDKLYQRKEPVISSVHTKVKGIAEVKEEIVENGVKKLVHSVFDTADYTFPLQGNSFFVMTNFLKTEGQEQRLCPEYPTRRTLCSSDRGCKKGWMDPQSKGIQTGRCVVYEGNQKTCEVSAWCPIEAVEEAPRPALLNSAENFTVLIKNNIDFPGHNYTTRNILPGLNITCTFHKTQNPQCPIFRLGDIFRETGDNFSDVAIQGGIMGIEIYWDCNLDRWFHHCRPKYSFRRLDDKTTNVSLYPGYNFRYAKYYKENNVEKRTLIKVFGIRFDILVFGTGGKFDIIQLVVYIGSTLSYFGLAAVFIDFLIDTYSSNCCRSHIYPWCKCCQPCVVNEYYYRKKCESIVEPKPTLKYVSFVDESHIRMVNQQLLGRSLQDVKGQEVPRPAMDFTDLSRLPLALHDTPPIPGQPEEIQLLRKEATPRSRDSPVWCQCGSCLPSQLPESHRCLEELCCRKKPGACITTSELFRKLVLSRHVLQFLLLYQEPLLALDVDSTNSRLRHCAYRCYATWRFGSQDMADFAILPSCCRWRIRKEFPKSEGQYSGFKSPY
Put plainly: IL-1β release assay in differentiated THP-1 cells stimulated with BzATP (Example 9); % inhibition and IC50. It is filed as cell-based. To be noted: THP-1 cells differentiated with LPS and IFN-γ, 30 min pretreatment, BzATP 250 uM, IL-1β by ELISA. As to the method: The cells are then pretreated for 30 minutes with the compound of interest at the appropriate concentration in RPMI media containing 100 IU/mL penicillin, 100 ug/mL streptomycin. […] 30 uL of cell supernatant is then collected and IL-1β levels determined via ELISA (R&D systems Cat. # HSLB50) according to manufacturer's recommendations using the Tecan Safire plate reader. Background adjusted IL-1β levels of drug treated and non-treated cells are used to calculate the percent inhibition.
The compounds set forth in Table 1 were tested for activity in a cellular model as described herein.
In general terms: In an ELISA, binding on a coated surface is turned into a signal by an enzyme label.
Usually IC50 stands for the midpoint of a concentration-inhibition curve. `C[C@H](C(N)=O)n1ccc2c(NC(=O)Cc3ccc(Cl)cc3)cccc2c1=O` [Compound 256]: the IC50 is 34.4 nM.
Next, `O=C(Cc1ccc(Cl)c(C(F)(F)F)c1)Nc1cccc2c(=O)n(CC3CCNCC3)ccc12` [Compound 257, 2-(4-Chloro-3-trifluoromethyl-phenyl)-N-(1-oxo-2-piperidin-4-ylmethyl-1,2-dihydro-isoquinolin-5-yl)-acetamide]: 39 nM; `NCC(CCl)Cn1ccc2c(NC(=O)Cc3ccc(Cl)c(C(F)(F)F)c3)cccc2c1=O` (centres unmarked) [Compound 258, N-[2-(3-Amino-2-chloromethyl-propyl)-1-oxo-1,2-dihydro-isoquinolin-5-yl]-2-(4-chloro-3-trifluoromethyl-phenyl)-acetamide]: 9.92 nM; `NCC(CCl)Cn1ccc2c(NC(=O)Cc3ccc(Cl)c(Cl)c3)cccc2c1=O` (centres unmarked) [Compound 259]: 208 nM.
The result for `C[C@H](C(N)=O)n1ccc2c(NC(=O)Cc3ccccc3Cl)cccc2c1=O` [Compound 260] reads 694 nM.
The result for `CNC(=O)[C@@H](CO)n1ccc2c(NC(=O)C(C)c3ccc(Cl)cc3)cccc2c1=O` (some centres unmarked) [Compound 261] reads 188 nM.
`C[C@H](C(N)=O)n1ccc2c(NC(=O)[C@H](C)c3ccc(Cl)cc3)cccc2c1=O` [Compound 262]: the IC50 is 73.1 nM.
The result for `C[C@H](C(=O)Nc1cccc2c(=O)n([C@H](C)C(N)=O)ccc12)c1ccc(Cl)cc1` [Compound 263] reads 13.3 nM.
Next, `C[C@H](C(=O)Nc1cccc2c(=O)n([C@@H](C)C(N)=O)ccc12)c1ccc(Cl)cc1` [Compound 265]: 15.2 nM; `C[C@@H](C(=O)Nc1cccc2c(=O)n([C@@H](C)C(N)=O)ccc12)c1ccc(Cl)cc1` [Compound 266]: 38.7 nM.
The result for `CC(C(=O)Nc1cccc2c(=O)n([C@H](C)C(N)=O)ccc12)c1ccc(Cl)c(C(F)(F)F)c1` (stereo partly drawn) [Compound 267, (R)-2-{5-[2-(4-Chloro-3-trifluoromethyl-phenyl)-propionylamino]-1-oxo-1H-isoquinolin-2-yl}-propionamide] reads 3.19 nM; that for `C[C@H](C(=O)Nc1cccc2c(=O)n([C@H](C)C(N)=O)ccc12)c1ccc(Cl)c(Cl)c1` [Compound 268], 3.92 nM; that for `C[C@H](C(N)=O)n1ccc2c(NC(=O)[C@H](C)c3ccc(Cl)c(Cl)c3)cccc2c1=O` [Compound 269], 8.97 nM.
Take `CNC(=O)[C@@H](CO)n1ccc2c(NC(=O)C(C)c3ccc(Cl)c(Cl)c3)cccc2c1=O` (stereo partly drawn) [Compound 270, (R)-2-{5-[2-(3,4-Dichloro-phenyl)-propionylamino]-1-oxo-1H-isoquinolin-2-yl}-3-hydroxy-N-methyl-propionamide]: the IC50 is 37.4 nM.
`CC(C)C[C@H](CO)n1ccc2c(NC(=O)[C@@H](C)c3ccc(Cl)cc3)cccc2c1=O` [Compound 271]: the IC50 was determined as 60.6 nM.
For `C[C@H](C(N)=O)n1ccc2c(NC(=O)c3cccc4ncccc34)cccc2c1=O` [Compound 272], the half-maximal inhibitory concentration (IC50) is greater than 1000 nM.
Next, `CC(C)[C@H](CO)n1ccc2c(NC(=O)[C@H](C)c3ccc(Cl)cc3)cccc2c1=O` [Compound 273, (R)-2-(4-Chloro-phenyl)-N-[(R)-2-(1-hydroxymethyl-2-methyl-propyl)-1-oxo-1,2-dihydro-isoquinolin-5-yl]-propionamide]: 3.54 nM; `CC(C)C[C@H](CO)n1ccc2c(NC(=O)Cc3ccc(Cl)c(Cl)c3)cccc2c1=O` [Compound 275]: 19.8 nM.
The result for `CNC(=O)[C@@H](C(C)C)n1ccc2c(NC(=O)[C@@H](C)c3ccc(Cl)cc3)cccc2c1=O` [Compound 276, (R)-2-{5-[(S)-2-(4-Chloro-phenyl)-propionylamino]-1-oxo-1H-isoquinolin-2-yl}-3,N-dimethyl-butyramide] reads 53.3 nM.
The result for `CNC(=O)[C@@H](C(C)C)n1ccc2c(NC(=O)[C@H](C)c3ccc(Cl)cc3)cccc2c1=O` [Compound 277] reads 82 nM.
